From patent publication EP0951284B1, “[…] DERIVATIVES” (priority 1996, dated 1998) come the findings set out here.

pIC50: −log10 of the molar value. Structures can show the parent of a compound that is named as a salt. Where two headings read alike, the source gives them in different places.

The target of data set [1] is T1, Human erythrocyte acetylcholinesterase (Homo sapiens, UniProt P22303).
T1 construct: Human erythrocyte acetylcholinesterase (type XIII, Sigma Israel); purchased Sigma Israel type XIII; host or cells: human erythrocytes
T1 sequence (P22303 32-617 isoform P22303-2 limits assumed): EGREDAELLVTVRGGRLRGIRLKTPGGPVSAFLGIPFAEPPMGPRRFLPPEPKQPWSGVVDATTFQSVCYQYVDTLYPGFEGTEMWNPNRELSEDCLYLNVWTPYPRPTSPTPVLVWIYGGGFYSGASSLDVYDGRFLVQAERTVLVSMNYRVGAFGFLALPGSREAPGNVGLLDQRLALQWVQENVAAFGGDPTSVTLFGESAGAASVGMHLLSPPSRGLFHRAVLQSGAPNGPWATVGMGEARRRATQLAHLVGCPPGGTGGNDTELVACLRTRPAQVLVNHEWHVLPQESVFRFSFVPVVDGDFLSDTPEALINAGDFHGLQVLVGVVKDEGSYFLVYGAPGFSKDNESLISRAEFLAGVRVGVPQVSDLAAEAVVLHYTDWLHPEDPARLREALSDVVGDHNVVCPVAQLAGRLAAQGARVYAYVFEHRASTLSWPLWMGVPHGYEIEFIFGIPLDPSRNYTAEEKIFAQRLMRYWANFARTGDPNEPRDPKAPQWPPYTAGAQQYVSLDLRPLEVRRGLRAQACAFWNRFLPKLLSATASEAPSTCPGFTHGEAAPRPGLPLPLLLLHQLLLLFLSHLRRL
Description: In vitro measurement of acetylcholinesterase (AChE) inhibition (Ellman method). The note with it: at time of peak activity, incubation 15 to 60 minutes at 37°C. It counts as biochemical. The procedure: Human erythrocyte acetylcholinesterase (type XIII, Sigma Israel), was prepared in a stock solution of 1U/ml, containing Triton (1%) and bovine serum albumin (0.05%) in phosphate buffer (pH 8). The enzyme (0.05U) was incubated with 3-5 different concentrations of test compound (in triplicate) for periods of from 15 to 60 minutes at 37°C. […] The percentage inhibition of AChE by each concentration of drug is calculated by comparison with that of enzyme in the absence of drug.
On the technique in general: Ellman's reagent forms a yellow product with free thiols.

The next data set has as its target T2, whole brain AChE (Mus musculus, UniProt P21836).
T2 construct: the brains rapidly removed (minus cerebellum), weighed and homogenized in 0.1M phosphate buffer pH 8.0; from tissue; host or cells: mouse brain (minus cerebellum) homogenate supernatant
T2 sequence (P21836 32-614): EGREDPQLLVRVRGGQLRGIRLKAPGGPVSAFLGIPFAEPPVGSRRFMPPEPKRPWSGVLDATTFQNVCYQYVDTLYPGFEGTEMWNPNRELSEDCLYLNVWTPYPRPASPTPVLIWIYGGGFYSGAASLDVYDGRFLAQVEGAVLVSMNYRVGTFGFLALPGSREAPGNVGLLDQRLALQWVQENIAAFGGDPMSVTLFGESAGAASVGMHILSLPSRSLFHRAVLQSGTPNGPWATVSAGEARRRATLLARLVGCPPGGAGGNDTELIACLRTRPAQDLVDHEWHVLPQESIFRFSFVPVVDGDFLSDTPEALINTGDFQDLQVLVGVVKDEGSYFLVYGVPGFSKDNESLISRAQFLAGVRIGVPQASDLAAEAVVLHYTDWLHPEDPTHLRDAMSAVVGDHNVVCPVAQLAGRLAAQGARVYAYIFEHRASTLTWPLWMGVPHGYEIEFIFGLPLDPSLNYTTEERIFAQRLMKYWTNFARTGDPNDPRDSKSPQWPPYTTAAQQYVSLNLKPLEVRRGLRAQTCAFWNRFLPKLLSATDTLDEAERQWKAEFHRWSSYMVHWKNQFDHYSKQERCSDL
The experiment in a line: Ex vivo measurement of brain AChE inhibition after sub-cutaneous administration. It counts as in vivo, mice. The settings on record: for ED50: sc, sub-cutaneous, mouse whole brain, at peak of activity, read-out: AChE Inhibition Ex vivo ED50 (AC). As for the experimental part:
Test drugs or saline were administered sub-cutaneously to male mice (Sabra strain, 28-35g). At least 4-5 mice were used per dose and a minimum of 3 doses per drug were tested. The mice were sacrificed 15, 30, 60, 70, 90, 120 or 180 minutes after drug administration, the brains rapidly removed (minus cerebellum), weighed and homogenized in 0.1M phosphate buffer pH 8.0, containing Triton (1mg/100g tissue) and centrifuged to remove cell debris. Aliquots (25 µl) of the supernatant were then incubated with acetylthiocholine and DTNB. AChE activity measured as described above. The % inhibition of whole brain AChE by each dose of drug was calculated by comparison with enzyme activity from 3 saline treated control mice run at the same time.

The nature of data set [2]: Acute toxicity in mice (sub-cutaneous, lethality within 6 hours). The note with it: mouse, in vivo, sc; for selectivity ratio: LD50 divided by ED50 (acetylcholine esterase ex vivo), read-out: Therapeutic Ratio (LD/AC); for LD50 at 6 h: sub-cutaneous, mice, within 6 hours. As for the experimental part:
Drugs were administered sub-cutaneously in at least 3 doses, to a minimum of 10 mice per dose. […] Therapeutic Ratio was calculated as LD50 divided by ED50(acetylcholine esterase ex vivo).

For data set [3], the system named is MAO-B. Description: Inhibition of MAO activity ex vivo (brain tissue), PEA substrate. It is filed as in vivo, mice. The settings on record: mouse brain tissue. As for the experimental part:
(§1) Male Sabra mice, weighing 45-50g were injected with test compound solutions (prepared in 0.9% saline). Each dose was administered to two or three mice. The mice were sacrificed two hours after drug administration or at a time corresponding to the peak AChE inhibition time (see Table 6). The brain and liver were rapidly dissected and stored in appropriate vials on ice. The tissues were weighed, diluted to 1/20 in sucrose 0.3M and stored at -20°C before performance of the MAO assay described above. The results given in Table 6 relate to measurements made on brain tissue only.

Data set [4] concerns MAO-A. The experiment in a line: Inhibition of MAO activity ex vivo (brain tissue), 5-HT substrate. It counts as in vivo, mice. The settings on record: mouse brain tissue. As for the experimental part: as §1
For data set [5], the target named is T3, MAO-A (Rattus norvegicus, UniProt P21396).
T3 sequence (P21396 1-526): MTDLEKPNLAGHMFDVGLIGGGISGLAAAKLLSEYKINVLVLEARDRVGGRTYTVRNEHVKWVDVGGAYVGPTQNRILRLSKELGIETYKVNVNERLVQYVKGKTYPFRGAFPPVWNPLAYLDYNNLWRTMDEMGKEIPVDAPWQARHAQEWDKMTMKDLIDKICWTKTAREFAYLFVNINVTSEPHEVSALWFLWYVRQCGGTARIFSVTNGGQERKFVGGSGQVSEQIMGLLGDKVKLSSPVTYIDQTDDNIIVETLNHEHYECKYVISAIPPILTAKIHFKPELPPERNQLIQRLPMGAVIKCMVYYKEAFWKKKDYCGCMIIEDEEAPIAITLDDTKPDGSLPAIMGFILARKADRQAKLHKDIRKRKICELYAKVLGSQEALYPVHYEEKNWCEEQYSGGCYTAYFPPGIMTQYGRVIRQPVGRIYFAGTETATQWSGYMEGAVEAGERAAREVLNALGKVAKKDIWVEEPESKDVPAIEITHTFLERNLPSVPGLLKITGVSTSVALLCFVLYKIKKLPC
Description: Inhibition of MAO activity in vitro, rat brain homogenate, 5-HT substrate.
Description: (§2) The MAO enzyme source was a homogenate of rat brain in 0.3M sucrose, which was centrifuged at 600G for 15 minutes. The supernatant was diluted appropriately in 0.05M phosphate buffer, and pre-incubated with serial dilutions of test compounds for 20 minutes at 37°C. ^14C-Labeled substrates (2-phenylethylamine, hereinafter PEA; 5-hydroxytryptamine, hereinafter 5-HT) were then added, and the incubation continued for a further 20 minutes (PEA), or 30-45 minutes (5-HT). Substrate concentrations used were 50µM (PEA) and 1mM (5-HT). In the case of PEA, enzyme concentration was chosen so that not more than 10% of the substrate was metabolized during the course of the reaction. The deaminated products were extracted into toluene-ethyl acetate (1:1, v/v) containing 0.6% (w/v) 2,5-diphenyloxazole prior to determination by liquid scintillation counting. Radioactivity in the eluate indicates the production of neutral and acidic metabolites formed as a result of MAO activity. Activity of MAO in the sample was expressed as a percentage of control activity in the absence of inhibitors after subtraction of appropriate blank values The activity determined using PEA as substrate is referred to as MAO-B, and that determined using 5-HT as MAO-A.

Data set [6] has as its target T4, MAO-B (Rattus norvegicus, UniProt P19643).
T4 sequence (P19643 1-520): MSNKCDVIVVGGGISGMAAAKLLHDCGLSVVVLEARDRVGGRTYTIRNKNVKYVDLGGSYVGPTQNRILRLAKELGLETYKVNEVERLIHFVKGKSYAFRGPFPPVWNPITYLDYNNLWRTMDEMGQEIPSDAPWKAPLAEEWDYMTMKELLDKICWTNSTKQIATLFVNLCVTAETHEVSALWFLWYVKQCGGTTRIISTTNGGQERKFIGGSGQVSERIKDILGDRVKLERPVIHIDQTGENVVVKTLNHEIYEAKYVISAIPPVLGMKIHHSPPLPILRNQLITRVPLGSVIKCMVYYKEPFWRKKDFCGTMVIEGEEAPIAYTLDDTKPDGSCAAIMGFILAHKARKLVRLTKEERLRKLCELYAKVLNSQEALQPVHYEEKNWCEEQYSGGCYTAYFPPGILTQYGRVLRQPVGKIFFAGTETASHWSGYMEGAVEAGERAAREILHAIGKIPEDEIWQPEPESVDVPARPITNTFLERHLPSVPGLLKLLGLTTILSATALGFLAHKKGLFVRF
Description: Inhibition of MAO activity in vitro, rat brain homogenate, PEA substrate. The note with it: PEA 50µM. On the set-up: The MAO enzyme source was a homogenate of rat brain in 0.3M sucrose; from tissue; host or cells: rat brain homogenate (600G supernatant). It counts as biochemical.
Description: as §2

The mark [7] stands for this setting: read-out: MAO-A Inhibition In vitro IC50, rat brain homogenate, 5-HT 1mM.

In the case of `C#CCNCCc1cccc(OC(=O)N(C)CC)c1` [Compound 13], the pIC50 in data set [1] is 4.52. For the same compound, on whole brain AChE (AChE inhibition), the “Time to peak activity t” value was 30 to 90 min and the “Time to return to 50% of peak t” value stood at 120 min. Further, at whole brain AChE, the ED50 stood at 53.8 µmol/kg. In addition, in data set [2], the selectivity ratio amounted to 8.5 and the LD50 at 6 h worked out at 458 µmol/kg. Also, in the data set with MAO-B [3], the “MAO-B Inhibition Ex vivo ED50” value was 50 µmol/kg. Further, the “MAO-A Inhibition Ex vivo ED50” value in the data set on MAO-A [4] is 75 µmol/kg. Also, the pIC50 against MAO-A [5] is 5.48. In addition, the pIC50 against MAO-B [6] was 5.08.

Regarding `C#CCNCCc1cccc(OC(=O)N(C)CCC)c1` [Compound 14], the pIC50 in data set [1] was 4.90; at MAO-A [5] (setting [7]) it was 5.74; on MAO-B [6] it was 6.52. For the same compound, the “Time to peak activity t” value at whole brain AChE (AChE inhibition) was 30 min. Besides, the ED50 on whole brain AChE worked out at 100 µmol/kg. For the same compound, the “MAO-B Inhibition Ex vivo ED50” value in the data set with MAO-B [3] is 0.6 µmol/kg. Moreover, in the data set with MAO-A [4], the “MAO-A Inhibition Ex vivo ED50” value was determined as 4.5 µmol/kg.

As for `C#CCN(C)C(C)Cc1cccc(OC(=O)N(C)CC)c1` (stereo not shown) [Compound 21], the values for the pIC50 (in data set [1]; on MAO-A [5] (setting [7]); against MAO-B [6]) were 3.64, 6.92 and 6.70, respectively.

Take `C#CCN(C)C(C)Cc1cccc(OC(=O)N(C)C)c1` (racemic) [Compound 20, (rac)-3-(N,N-dimethyl-carbamyloxy) -α-methyl-N'-methyl,N'-propargyl phenethylamine HCl]: the pIC50 in data set [1] is 5.77; at MAO-A [5], 6.92; against MAO-B [6], 6.40. Also, the ED50 on whole brain AChE was determined as 15 µmol/kg. Moreover, the selectivity ratio in data set [2] came out at 11.3. Besides, in data set [2], the LD50 at 6 h was 170 µmol/kg. The “MAO-B Inhibition Ex vivo ED50” value in the data set with MAO-B [3] was 7 µmol/kg. Moreover, the “MAO-A Inhibition Ex vivo ED50” value with MAO-A [4] is 6 µmol/kg.

In the case of `C#CCN(C)CCc1cccc(OC(=O)N(C)CC)c1` [Compound 15], the results for the pIC50 (in data set [1]; against MAO-A [5]; at MAO-B [6]) were 4.17, 6.00 and 6.00, respectively. Moreover, on whole brain AChE (AChE inhibition), the “Time to peak activity t” value is given as 30 min. Further, the ED50 on whole brain AChE stood at 145 µmol/kg. For the same compound, the selectivity ratio in data set [2] was determined as 8.6. This compound returned an LD50 at 6 h in data set [2] of 1250 µmol/kg. For the same compound, the “MAO-B Inhibition Ex vivo ED50” value in the data set with MAO-B [3] turned out to be 35 µmol/kg. Besides, the “MAO-A Inhibition Ex vivo ED50” value in the data set with MAO-A [4] was 35 µmol/kg.

A word on the pIC50: it is −log10 of the IC50, conventionally taken in molar units. The ED50 is the midpoint of the dose-response relation. In general, LD50 refers to the dose expected to kill half of the subjects tested. A low value points to a more toxic substance.
